Reference: US7288258B2, “Polyepitopic protein fragments of the E6 and E7 proteins of HPV, their production and their use particularly in vaccination” (Peptide Immune Ligands, priority 1999, dated 2007)

Tests used:
Experiment in all cases: association of peptide with HLA molecules and stability of the complex
Conditions in all cases: stable complex: peptide remains bound for at least about 3 hours at 37° C.
[1] = system: HLA molecules of the A29 type; assay type: binding, human
From the text: (§1) The different epitopes of the polyepitopic region of the predetermined protein, and delimiting the epitopic protein fragments, are preferably selected from the peptides; • binding to a predetermined molecule of MCH, particularly to a molecule of the predetermined HLA type, and this from concentrations of about 10^−6 M to about 10^−10 M in peptide for concentrations of about 10^−7 M of HLA molecules, particularly under the conditions described hereafter, • and forming a stable complex with said MCH molecule, namely particularly a complex in which said peptide remains bound to said molecule for at least about 3 hours at 37° C.
(§2) By way of illustration, the above-mentioned epitopes of the invention are selected from among the peptides adapted: • on the one hand of associating with the molecules of MCH, particularly by using the following method: • incubation (particularly for about 2 hours at 25° C., then about 15 hours at 4° C.) of the peptide in the presence of MCH molecules, from the lysis of human or animal cells, or purified particularly by affinity chromatography from human or animal cell lines, • trapping complexes formed during the preceding step on a solid support covered with a first antibody, particularly monoclonal, recognizing specifically the CMH molecules in their configuration dependent on their connection to said peptide, • addition to the preceding solid support of a second marked antibody, particularly by coupling to a radioactive, enzymatic or fluorescent marker, said marked antibody recognizing specifically either the long chains of MCH in their configuration dependent on their connection to the peptide, or the short chain of MCH or the β2-microglobulin binding specifically to the different long chains of the MCH in their above-mentioned configuration, • detection, after rinsing of the solid support, of the possible presence of the second marked antibody remaining fixed on the solid support, signifying an association effect between the molecules of MCH and the peptide studied, • and, on the other hand, forming a complex with said MCH molecules, whose stability can be evaluated by the use of a method of following according to time the connection established between the peptide and the MCH molecules, this method being preferably carried out according to a protocol identical to the preceding method, but in which the incubation step of the peptide in the presence of MCH molecules on the solid support covered with said first antibody, is preceded by a preliminary step of eliminating the free peptide adapted that may be present in the reaction medium, particularly by washing the solid support, said incubation step being carried out (preferably at a temperature of 37° C.) for variable times of 1 hours, 3 hours, 5 hours, 24 hours and 48 hours.
(§3) As mentioned above, the epitopes of the invention should be recognized by the T cells in association with the MCH molecules and associate with these latter, particularly in the framework of the practice of the recognition test described above. This association can be weak (detectable at concentrations of peptide analogs of the order of 10^−4 to 10^−5 M), intermediate (detectable at concentrations of peptide analogs of the order of 10^−6 to 10^−7 M), or strong (detectable at concentrations of peptide analogs of the order of 10^−8 to 10^−9 M). The peptides associated with the MCH molecules in the scope of the present invention are preferably adapted to bond during at least about 3 hours, to said MCH molecules.

[2] = system: HLA molecules of the B44 type; assay type: binding, human
From the text: as §1, §2, §3

[3] = system: HLA molecules of the B35 type; assay type: binding, human
From the text: as §1, §2, §3

[4] = target: T1, HLA molecules of the B7 type (Homo sapiens, UniProt P01889); assay type: binding
T1 construct: endogenous in cells
From the text: as §1, §2, §3

[5] = system: HLA molecules of the A24 type; assay type: binding, human
From the text: as §1, §2, §3

[6] = system: HLA molecules of the A11 type; assay type: binding, human
From the text: as §1, §2, §3

[7] = target: T2, HLA molecules of the A3 type (Homo sapiens, UniProt P04439); assay type: binding
T2 construct: endogenous in cells
From the text: as §1, §2, §3

[8] = system: HLA molecules of the B27 type; assay type: binding, human
From the text: as §1, §2, §3

[9] = system: HLA molecules of the A2 type; assay type: binding, human
From the text: as §1, §2, §3

[10] = system: HLA molecules of the B51 type; assay type: binding, human
From the text: as §1, §2, §3

T2 sequence (P61769 21-119): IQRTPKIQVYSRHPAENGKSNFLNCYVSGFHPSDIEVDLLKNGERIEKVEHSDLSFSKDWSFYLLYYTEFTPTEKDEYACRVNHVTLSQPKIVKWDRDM
T2 sequence (P04439 25-365): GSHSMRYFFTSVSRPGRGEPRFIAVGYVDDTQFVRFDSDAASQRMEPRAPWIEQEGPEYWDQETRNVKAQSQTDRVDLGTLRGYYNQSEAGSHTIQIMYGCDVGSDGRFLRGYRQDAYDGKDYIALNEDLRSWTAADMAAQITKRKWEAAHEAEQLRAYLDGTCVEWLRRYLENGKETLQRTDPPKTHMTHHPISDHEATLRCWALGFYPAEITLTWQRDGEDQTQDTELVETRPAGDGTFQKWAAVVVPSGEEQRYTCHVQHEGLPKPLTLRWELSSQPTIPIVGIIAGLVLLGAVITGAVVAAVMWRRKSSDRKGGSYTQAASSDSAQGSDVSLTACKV
T1 sequence (P01889 25-362): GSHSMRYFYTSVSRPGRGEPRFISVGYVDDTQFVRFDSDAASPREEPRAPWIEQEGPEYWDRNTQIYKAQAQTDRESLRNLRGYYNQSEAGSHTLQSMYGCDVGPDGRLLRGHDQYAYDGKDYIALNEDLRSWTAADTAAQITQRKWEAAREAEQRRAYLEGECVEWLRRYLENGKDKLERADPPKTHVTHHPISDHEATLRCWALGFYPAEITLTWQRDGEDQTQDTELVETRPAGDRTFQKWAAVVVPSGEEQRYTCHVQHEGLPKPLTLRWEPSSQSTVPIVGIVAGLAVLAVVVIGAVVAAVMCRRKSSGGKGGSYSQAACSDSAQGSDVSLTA
T1 sequence (P61769 21-119, further chain): as the sequence (P61769 21-119) above

Sequence: AEPDRAHY (Human Papillomavirus)
- binding stably to HLA molecules of the A29 type [1]: binding stably
- binding stably to HLA molecules of the B44 type [2]: binding stably

Sequence: ALNKMFCQL (listed as Homo sapiens)
- binding stably to HLA molecules of the B35 type [3]: binding stably

Sequence: APPQHLIRV
- binding stably to HLA molecules of the B7 type [4]: binding stably

Sequence: CYSLYGTTL (Human Papillomavirus)
- binding stably to HLA molecules of the A24 type [5]: binding stably

Sequence: EPDRAHYNIV (Human Papillomavirus)
- binding stably to HLA molecules of the B35 type [3]: binding stably
- binding stably to HLA molecules of the B7 type [4]: binding stably

Sequence: EYLDDRNTF
- binding stably to HLA molecules of the A24 type [5]: binding stably

Sequence: FRDLCIVYR (Human Papillomavirus)
- binding stably to HLA molecules of the A11 type [6]: binding stably
- binding stably to HLA molecules of the A3 type [7]: binding stably

Sequence: FRHSVVVPY (listed as Homo sapiens)
- binding stably to HLA molecules of the B27 type [8]: binding stably

Sequence: GDTPTLHEY (Human Papillomavirus)
- binding stably to HLA molecules of the B44 type [2]: binding stably

Sequence: GLAPPQHLIRV
- binding stably to HLA molecules of the A2 type [9]: binding stably

Sequence: GRNSFEVR (listed as Homo sapiens)
- binding stably to HLA molecules of the B27 type [8]: binding stably

Sequence: GSYGFRLGFL (listed as Homo sapiens)
- binding stably to HLA molecules of the B35 type [3]: binding stably

Sequence: IILECVYCK (Human Papillomavirus)
- binding stably to HLA molecules of the A11 type [6]: binding stably

Sequence: IRVEGNLRVEY (listed as Homo sapiens)
- binding stably to HLA molecules of the B27 type [8]: binding stably

Sequence: ITLEDSSGN (listed as Homo sapiens)
- binding stably to HLA molecules of the A2 type [9]: binding stably

Sequence: IVCPICSQK
- binding stably to HLA molecules of the A11 type [6]: binding stably
- binding stably to HLA molecules of the A3 type [7]: binding stably

Sequence: IVYRDGNPY
- binding stably to HLA molecules of the A11 type [6]: binding stably
- binding stably to HLA molecules of the A3 type [7]: binding stably

Sequence: IYKQSQHM (listed as Homo sapiens)
- binding stably to HLA molecules of the A24 type [5]: binding stably

Sequence: KKQRFHNIR (Human Papillomavirus)
- binding stably to HLA molecules of the B27 type [8]: binding stably

Sequence: KLPQLCTEL
- binding stably to HLA molecules of the A2 type [9]: binding stably

Sequence: LECVYCKQQL (Human Papillomavirus)
- binding stably to HLA molecules of the A29 type [1]: binding stably
- binding stably to HLA molecules of the B44 type [2]: binding stably

Sequence: LEDLLMGTL (Human Papillomavirus)
- binding stably to HLA molecules of the A29 type [1]: binding stably
- binding stably to HLA molecules of the B44 type [2]: binding stably

Sequence: LEDSSGNLL (listed as Homo sapiens)
- binding stably to HLA molecules of the B44 type [2]: binding stably

Sequence: LEQQYNKPL
- binding stably to HLA molecules of the A29 type [1]: binding stably
- binding stably to HLA molecules of the B44 type [2]: binding stably

Sequence: LLGRNSFEV
- binding stably to HLA molecules of the A2 type [9]: binding stably

Sequence: LLMGTLGIV
- binding stably to HLA molecules of the A2 type [9]: binding stably

Sequence: LPQLCTEL (Human Papillomavirus)
- binding stably to HLA molecules of the B51 type [10]: binding stably

Sequence: LRVEYLDDR (listed as Homo sapiens)
- binding stably to HLA molecules of the B27 type [8]: binding stably

Sequence: NIVTFCCK (Human Papillomavirus)
- binding stably to HLA molecules of the A11 type [6]: binding stably
- binding stably to HLA molecules of the A3 type [7]: binding stably

Sequence: NYMCNSSCM (listed as Homo sapiens)
- binding stably to HLA molecules of the A24 type [5]: binding stably

Sequence: PEEKQRHL (Human Papillomavirus)
- binding stably to HLA molecules of the B44 type [2]: binding stably

Sequence: PPGTRVRAM (listed as Homo sapiens)
- binding stably to HLA molecules of the B35 type [3]: binding stably

Sequence: QLCTELQTTI (Human Papillomavirus)
- binding stably to HLA molecules of the A2 type [9]: binding stably

Sequence: QRFHNIRGRW (Human Papillomavirus)
- binding stably to HLA molecules of the B27 type [8]: binding stably

Sequence: RFHNIRGRW (Human Papillomavirus)
- binding stably to HLA molecules of the A24 type [5]: binding stably

Sequence: RPILTIITL
- binding stably to HLA molecules of the B35 type [3]: binding stably
- binding stably to HLA molecules of the B7 type [4]: binding stably

Sequence: RPRKLPQL (Human Papillomavirus)
- binding stably to HLA molecules of the B35 type [3]: binding stably
- binding stably to HLA molecules of the B7 type [4]: binding stably

Sequence: RREVYDFAFR (Human Papillomavirus)
- binding stably to HLA molecules of the B27 type [8]: binding stably

Sequence: RRPILTIITL (listed as Homo sapiens)
- binding stably to HLA molecules of the B27 type [8]: binding stably

Sequence: RVEGNLRVEY (listed as Homo sapiens)
- binding stably to HLA molecules of the A2 type [9]: binding stably

Sequence: RVRAMAIYK (listed as Homo sapiens)
- binding stably to HLA molecules of the A3 type [7]: binding stably

Sequence: SDCTTIHYNY (listed as Homo sapiens)
- binding stably to HLA molecules of the B44 type [2]: binding stably

Sequence: SEYRHYCY (Human Papillomavirus)
- binding stably to HLA molecules of the A29 type [1]: binding stably
- binding stably to HLA molecules of the B44 type [2]: binding stably

Sequence: STPPPGTRV (listed as Homo sapiens)
- binding stably to HLA molecules of the A2 type [9]: binding stably

Sequence: SYGFRLGFL (listed as Homo sapiens)
- binding stably to HLA molecules of the A24 type [5]: binding stably

Sequence: TELQTTIHDI (Human Papillomavirus)
- binding stably to HLA molecules of the A29 type [1]: binding stably
- binding stably to HLA molecules of the B44 type [2]: binding stably

Sequence: TFRHSVVV (listed as Homo sapiens)
- binding stably to HLA molecules of the A24 type [5]: binding stably

Sequence: TIHDIILRCV
- binding stably to HLA molecules of the A2 type [9]: binding stably

Sequence: TLEQQYNK (Human Papillomavirus)
- binding stably to HLA molecules of the A11 type [6]: binding stably
- binding stably to HLA molecules of the A3 type [7]: binding stably

Sequence: TLGIVCPI (Human Papillomavirus)
- binding stably to HLA molecules of the A2 type [9]: binding stably

Sequence: TPTLHEYML (Human Papillomavirus)
- binding stably to HLA molecules of the B35 type [3]: binding stably

Sequence: TRVRAMAIYK (listed as Homo sapiens)
- binding stably to HLA molecules of the B27 type [8]: binding stably

Sequence: TYQGSYGFRL
- binding stably to HLA molecules of the A24 type [5]: binding stably

Sequence: TYSPALNKMF
- binding stably to HLA molecules of the A24 type [5]: binding stably

Sequence: VEGNLRVEY (listed as Homo sapiens)
- binding stably to HLA molecules of the B44 type [2]: binding stably

Sequence: VEYLDDRNTF (listed as Homo sapiens)
- binding stably to HLA molecules of the B44 type [2]: binding stably

Sequence: VRVCACPGR (listed as Homo sapiens)
- binding stably to HLA molecules of the B27 type [8]: binding stably

Sequence: VYDFAFRDL (Human Papillomavirus)
- binding stably to HLA molecules of the A24 type [5]: binding stably

Sequence: YDFAFRDL (Human Papillomavirus)
- binding stably to HLA molecules of the A29 type [1]: binding stably
- binding stably to HLA molecules of the B44 type [2]: binding stably

Sequence: YMLDLQPETT
- binding stably to HLA molecules of the A2 type [9]: binding stably
